Assay results as given in patent publication US11406589B2, “Cutibacterium granulosum strain, and composition comprising such strain or culture thereof for preventing or treating acne” (GENOME AND COMPANY, priority 2018, dated 2022).

Experiments:
filaggrin = assay: Skin barrier function: filaggrin RNA expression in HaCaT cell line; type: cell-based, human; settings: 24 hours, retinoic acid 1 μM (positive control)
claudin-1 = assay: Skin barrier function: claudin-1 RNA expression in HaCaT cell line; type: cell-based, human; settings: 24 hours, retinoic acid 1 μM (positive control)
[1] = system: HAS3 (hyaluronic acid synthase); assay: Skin moisturizing function: HAS3 RNA expression in HaCaT cell line; type: cell-based, human; settings: 24 hours, retinoic acid 1 μM (positive control)
Procedure: (§1) To investigate a function for a skin moisturizing effect by GENSCO2 fermented filtrates, it was confirmed that the fermented filtrates of GENSCO2 were treated to the HaCaT cell line by % to the cell culture solution, and then were reacted for 24 hours to confirm the expression of HAS3 (hyaluronic acid synthase) and aquaporin which were markers of the skin moisturizing function on RNA.

aquaporin = assay: Skin moisturizing function: aquaporin RNA expression in HaCaT cell line; type: cell-based, human; settings: 24 hours, retinoic acid 1 μM (positive control)
Procedure: as §1

[2] = system: Cutibacterium acnes ATCC 6919; assay: Growth inhibition, overlay clear zone test; type: cell-based; settings: overlay on RCM agar, about 72 hours; triclosan positive control 200 mg/ml
Text: (§2) The effect of growth inhibition of S. aureus and C. acnes was confirmed by observing formation of a clear zone. […] The experiment was progressed, expecting that S. aureus and C. acnes around Cutibacterium granulosum GENSC02 could not grow and they became transparent, if Cutibacterium granulosum GENSC02 had the effect of inhibiting the growth of bacteria. The Cutibacterium granulosum GENSC02 culture broth was collected with a platinum loop and was anaerobically cultured in a thin RCM agar plate at 37° C. for 72 hours by drawing a line about 2.5 cm. After confirming that Cutibacterium granulosum GENSC02 sufficiently grew, S. aureus and C. acnes strains adjusted to 10^4 cfu/ml were inoculated in 10 ml RCM agar at about 45° C. which was not yet solidified, and they were well suspended before the medium was hardened, and they were evenly solidified by pouring them on the agar plate in which Cutibacterium granulosum GENSC02 grew. In the solidified agar plate, S. aureus and C. acnes were further cultured anaerobically at 37° C. for about 40 hours and about 72 hours, respectively, to observe the size of the clear zone appearing around Cutibacterium granulosum GENSC02. As the negative control group, phosphate-buffered saline (PBS) was used, and as the positive control group, triclosan was used, and S. aureus and C. acnes were treated at an amount of 10 mg/ml and 200 mg/ml, respectively.

[3] = system: Staphylococcus aureus KCTC 1621; assay: Growth inhibition, overlay clear zone test; type: cell-based; settings: overlay on RCM agar, about 40 hours; triclosan positive control 10 mg/ml
Text: as §2

| Structure (SMILES) | expression of filaggrin (filaggrin) [times] | expression of claudin-1 (claudin-1) [times] | expression of HAS3 (hyaluronic acid synthase) [1] | expression of aquaporin (aquaporin) | growth inhibition of C. acnes (clear zone) [2] | growth inhibition of S. aureus (clear zone) [3] |
| --- | --- | --- | --- | --- | --- | --- |
| CC1=C(/C=C/C(C)=C/C=C/C(C)=C/C(=O)O)C(C)(C)CCC1 [retinoic acid] | 1.5 | 1.5 | 2˜4 times | 2˜4 times | – | – |
| Oc1cc(Cl)ccc1Oc1ccc(Cl)cc1Cl [triclosan] | – | – | – | – | much smaller area than GENSC02 treatment | much smaller area than GENSC02 treatment |
